For 22 molecules, IC50, Emax and inhibition results are on record in ChEMBL document CHEMBL3091417, “Substituted phenyl as a steroid A-ring mimetic: providing agonist activity to a class of arylsulfonamide nonsteroidal glucocorticoid ligands” (Bioorg Med Chem Lett, 2013).

Calls of active or inactive are those of the source. The rule behind the calls is not given here.

Experiment [1] has as its target T1, Mineralocorticoid receptor (Homo sapiens, UniProt P08235).
T1 sequence (P08235 whole entry): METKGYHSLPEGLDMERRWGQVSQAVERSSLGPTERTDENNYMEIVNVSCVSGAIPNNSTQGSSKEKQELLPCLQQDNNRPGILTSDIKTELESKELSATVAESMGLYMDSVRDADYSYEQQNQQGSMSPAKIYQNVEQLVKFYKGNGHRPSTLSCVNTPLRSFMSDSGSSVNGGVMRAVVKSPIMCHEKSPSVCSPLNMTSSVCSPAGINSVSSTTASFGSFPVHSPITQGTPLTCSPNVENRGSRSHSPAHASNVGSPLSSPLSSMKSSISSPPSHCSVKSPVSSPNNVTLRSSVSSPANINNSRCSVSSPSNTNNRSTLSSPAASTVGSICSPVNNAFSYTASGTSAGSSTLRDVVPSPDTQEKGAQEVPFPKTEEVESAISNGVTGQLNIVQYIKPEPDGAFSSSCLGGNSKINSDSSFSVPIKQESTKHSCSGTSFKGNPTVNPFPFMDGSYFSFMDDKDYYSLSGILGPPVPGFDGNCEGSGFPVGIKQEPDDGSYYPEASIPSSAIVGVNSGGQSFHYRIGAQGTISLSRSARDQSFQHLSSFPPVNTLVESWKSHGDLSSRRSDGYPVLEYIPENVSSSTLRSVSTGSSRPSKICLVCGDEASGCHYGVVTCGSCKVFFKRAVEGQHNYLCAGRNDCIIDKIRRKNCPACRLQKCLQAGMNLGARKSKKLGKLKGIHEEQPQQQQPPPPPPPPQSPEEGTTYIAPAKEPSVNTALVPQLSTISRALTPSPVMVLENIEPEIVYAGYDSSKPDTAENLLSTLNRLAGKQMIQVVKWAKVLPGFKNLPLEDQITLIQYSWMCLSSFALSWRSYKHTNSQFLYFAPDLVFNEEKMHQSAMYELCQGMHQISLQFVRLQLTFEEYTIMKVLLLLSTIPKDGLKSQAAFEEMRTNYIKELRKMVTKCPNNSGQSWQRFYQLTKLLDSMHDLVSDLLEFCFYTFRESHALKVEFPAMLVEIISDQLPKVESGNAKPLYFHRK
Nature of the experiment: Inhibition of mineralocorticoid receptor (unknown origin) expressed in baculovirus-infected insect cells by fluorescence polarization assay. (Fluorescence polarisation rises when a labelled molecule tumbles more slowly, as on binding a larger partner.)

The target of experiment [2] is T2, Glucocorticoid receptor (Homo sapiens, UniProt P04150).
T2 sequence (P04150 whole entry): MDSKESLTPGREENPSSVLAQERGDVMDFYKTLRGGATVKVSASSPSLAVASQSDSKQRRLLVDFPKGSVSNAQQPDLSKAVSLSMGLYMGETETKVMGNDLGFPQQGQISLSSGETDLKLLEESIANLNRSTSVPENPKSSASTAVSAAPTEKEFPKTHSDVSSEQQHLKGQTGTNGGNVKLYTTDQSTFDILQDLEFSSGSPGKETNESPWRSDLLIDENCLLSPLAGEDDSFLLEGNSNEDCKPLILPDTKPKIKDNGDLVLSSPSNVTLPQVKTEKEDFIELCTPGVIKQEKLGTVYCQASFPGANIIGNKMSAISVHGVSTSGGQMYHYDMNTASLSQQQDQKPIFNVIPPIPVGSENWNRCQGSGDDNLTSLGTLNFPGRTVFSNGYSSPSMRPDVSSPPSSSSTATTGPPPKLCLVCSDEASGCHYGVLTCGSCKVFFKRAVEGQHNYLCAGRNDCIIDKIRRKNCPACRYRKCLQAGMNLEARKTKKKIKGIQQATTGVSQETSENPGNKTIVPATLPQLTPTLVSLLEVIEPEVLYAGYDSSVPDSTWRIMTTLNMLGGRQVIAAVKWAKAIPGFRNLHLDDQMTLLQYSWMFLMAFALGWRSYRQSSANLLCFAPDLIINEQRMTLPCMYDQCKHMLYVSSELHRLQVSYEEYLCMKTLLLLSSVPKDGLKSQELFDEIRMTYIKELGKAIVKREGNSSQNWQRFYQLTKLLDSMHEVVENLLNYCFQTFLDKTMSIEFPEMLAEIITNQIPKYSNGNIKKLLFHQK
Nature of the experiment: Agonist activity at glucocorticoid receptor in human foreskin fibroblasts assessed as IL-1-mediated IL-6 synthesis after 24 hrs.

The target in experiment [3] is T2, Glucocorticoid receptor. Nature of the experiment: Inhibition of glucocorticoid receptor (unknown origin) expressed in baculovirus-infected insect cells by fluorescence polarization assay.
Experiment [4] concerns the target T3, Glucocorticoid receptor (Homo sapiens) (UniProt P04150).
T3 sequence (whole entry): T2 sequence (P04150 whole entry)
Nature of the experiment: Agonist activity at glucocorticoid receptor in human foreskin fibroblasts assessed as IL-1-mediated IL-6 synthesis at […] after 24 hrs relative to dexamethasone.

For experiment [5], the target named is T4, Progesterone receptor (Homo sapiens, UniProt P06401).
T4 sequence (P06401 whole entry): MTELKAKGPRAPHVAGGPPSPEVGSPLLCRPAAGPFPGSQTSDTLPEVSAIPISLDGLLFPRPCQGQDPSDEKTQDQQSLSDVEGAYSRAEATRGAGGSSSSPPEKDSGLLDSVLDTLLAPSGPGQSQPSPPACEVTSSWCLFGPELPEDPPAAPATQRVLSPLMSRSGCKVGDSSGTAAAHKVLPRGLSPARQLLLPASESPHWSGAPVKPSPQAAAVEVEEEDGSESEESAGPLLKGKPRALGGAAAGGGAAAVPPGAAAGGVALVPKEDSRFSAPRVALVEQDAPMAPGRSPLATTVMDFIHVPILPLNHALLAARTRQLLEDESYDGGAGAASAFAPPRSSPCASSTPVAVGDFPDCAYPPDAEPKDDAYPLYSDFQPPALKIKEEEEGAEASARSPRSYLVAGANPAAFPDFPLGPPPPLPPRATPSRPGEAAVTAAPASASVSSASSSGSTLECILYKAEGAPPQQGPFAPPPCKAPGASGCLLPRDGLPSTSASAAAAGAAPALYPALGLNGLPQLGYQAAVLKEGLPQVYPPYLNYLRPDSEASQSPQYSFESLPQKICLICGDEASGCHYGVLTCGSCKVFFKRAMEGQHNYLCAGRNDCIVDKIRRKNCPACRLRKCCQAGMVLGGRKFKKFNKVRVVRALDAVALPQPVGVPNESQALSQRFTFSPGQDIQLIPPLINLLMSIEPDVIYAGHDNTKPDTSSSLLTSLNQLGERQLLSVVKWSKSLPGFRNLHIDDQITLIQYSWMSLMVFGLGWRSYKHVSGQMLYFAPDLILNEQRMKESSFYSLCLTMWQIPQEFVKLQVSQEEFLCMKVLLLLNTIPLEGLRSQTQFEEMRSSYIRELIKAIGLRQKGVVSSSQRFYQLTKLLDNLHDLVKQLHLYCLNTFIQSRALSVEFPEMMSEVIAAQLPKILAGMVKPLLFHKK
Nature of the experiment: Inhibition of progesterone receptor (unknown origin) expressed in baculovirus-infected insect cells by fluorescence polarization assay.

For experiment [6], the target named is T3, Glucocorticoid receptor (Homo sapiens). Nature of the experiment: Inhibition of glucocorticoid receptor (unknown origin) expressed in baculovirus-infected insect cells up to 10 uM by fluorescence polarization assay.

As a reminder, the IC50 is the concentration that gives 50% inhibition. Usually Emax stands for the maximal effect, on the per cent scale that the assay sets. For `CCC(Cc1cc(C)c(O)c(C)c1)NS(=O)(=O)c1c(C)cc(C)cc1C` (stereo unspecified), the concentration for half-maximal inhibition (IC50) worked out at 0.48 µM in experiment [1], 0.089 µM in experiment [2], 0.012 µM in experiment [3] and 3.5 µM in experiment [5]. Also, the Emax in experiment [4] worked out at 58%.
For `CC[C@@H](Cc1ccc(O)cc1C)NS(=O)(=O)c1c(C)cc(C)cc1C`, the IC50 in experiment [1] was 1 µM; in experiment [2], over 2 µM; in experiment [3], 0.027 µM; in experiment [5], 2.8 µM. Besides, in experiment [4], the Emax worked out at 0%.
In the case of `CCC(Cc1ccc(O)c(C)c1C)NS(=O)(=O)c1c(C)cc(C)cc1C` (racemic), the IC50 came to 0.24 µM in experiment [1], 0.015 µM in experiment [2], 0.005 µM in experiment [3] and 0.86 µM in experiment [5]. Moreover, the Emax in experiment [4] was 81%.
In the same order, the values of `CCC(Cc1c(C)cccc1C)NS(=O)(=O)c1c(C)cc(C)cc1C` (stereo unspecified) are over 10 µM, over 10 µM, 0.11 µM, over 10 µM and 0%.
As to `CCC(Cc1cccc2ccccc12)NS(=O)(=O)c1c(C)cc(C)cc1C` (stereo unspecified), the IC50 is 0.19 µM in experiment [1], over 10 µM in experiment [2], 0.01 µM in experiment [3] and 1.5 µM in experiment [5]. The maximal effect (Emax) in experiment [4] came to 0%.
Consider `CCC(Cc1cc(F)cc(F)c1)NS(=O)(=O)c1c(C)cc(C)cc1C` (stereo unspecified), for which the IC50 was 0.4 µM in experiment [1], over 10 µM in experiment [2], 0.048 µM in experiment [3] and 3.4 µM in experiment [5]. Further, the Emax in experiment [4] is 0%.
Regarding `CCC(Cc1cccc(C)c1C)NS(=O)(=O)c1c(C)cc(C)cc1C` (stereo unspecified), the half-maximal inhibitory concentration (IC50) was 0.35 µM in experiment [1], over 10 µM in experiment [2], 0.01 µM in experiment [3] and 2 µM in experiment [5]. Also, in experiment [4], the maximal effect (Emax) turned out to be 19%.
In the case of `CC[C@@H](Cc1ccc(O)c(C)c1)NS(=O)(=O)c1c(C)cc(C)cc1C`, the IC50 in experiment [1] is 2.3 µM; in experiment [2], over 2 µM; in experiment [3], 0.023 µM; in experiment [5] it was 2.5 µM. Besides, the Emax in experiment [4] amounted to 0%.
Turning to `CCC(Cc1ccccc1C)NS(=O)(=O)c1c(C)cc(C)cc1C` (stereo unspecified), the IC50 in experiment [1] was 0.7 µM; in experiment [2], over 10 µM; in experiment [3] it was 0.083 µM; in experiment [5], 4.2 µM. In addition, the Emax in experiment [4] is 0%.
As for `CCC(Cc1cc(Cl)cc(Cl)c1)NS(=O)(=O)c1c(C)cc(C)cc1C` (stereo unspecified), the IC50 in experiment [1] was 0.15 µM; in experiment [2], over 10 µM; in experiment [3], 0.01 µM; in experiment [5], 1.2 µM. Also, the Emax in experiment [4] worked out at 0%.
`CCC(Cc1ccc(O)c2ccccc12)NS(=O)(=O)c1c(C)cc(C)cc1C` (stereo unspecified): the IC50 in experiment [1] stood at 0.11 µM; in experiment [2] it was 0.023 µM; in experiment [3] it was 0.003 µM; in experiment [5], 0.21 µM. Moreover, in experiment [4], the maximal effect (Emax) worked out at 80%.
`CCC(Cc1cc(C)c(OC)c(C)c1)NS(=O)(=O)c1c(C)cc(C)cc1C` (stereo unspecified): the concentration for half-maximal inhibition (IC50) in experiment [1] was 1.4 µM; in experiment [2] it was over 2 µM; in experiment [3], 0.25 µM; in experiment [5], over 10 µM. Further, the Emax in experiment [4] is 0%.
Regarding `CCC(Cc1cc(C)cc(C)c1)NS(=O)(=O)c1c(C)cc(C)cc1C` (stereo unspecified), the IC50 is 0.36 µM in experiment [1], over 10 µM in experiment [2], 0.011 µM in experiment [3] and 7.4 µM in experiment [5]. Besides, the Emax in experiment [4] was 36%.
Turning to `CCC(Cc1ccc(C)cc1C)NS(=O)(=O)c1c(C)cc(C)cc1C` (stereo unspecified), the IC50 in experiment [1] was 2.4 µM; in experiment [2], over 10 µM; in experiment [3], 0.16 µM; in experiment [5], 8.2 µM. Further, the Emax in experiment [4] came to 0%.
In the case of `CCC(Cc1cc(C)ccc1C)NS(=O)(=O)c1c(C)cc(C)cc1C` (stereo unspecified), the IC50 in experiment [1] was 0.32 µM; in experiment [2] it was over 10 µM; in experiment [3] it was 0.025 µM; in experiment [5], over 10 µM. Further, the Emax in experiment [4] stood at 0%.
For the molecule `Cc1cc(C)c(S(=O)(=O)NC(C)Cc2ccccc2)c(C)c1` (stereo unspecified), in experiment [6], the inhibition result is “inactive”.
Take `CC[C@@H](Cc1ccc(O)cc1)NS(=O)(=O)c1c(C)cc(C)cc1C`: the IC50 was 5.2 µM in experiment [1], over 2 µM in experiment [2], 0.12 µM in experiment [3] and 6.4 µM in experiment [5]. The Emax in experiment [4] worked out at 0%.
As to `CCC(Cc1ccc(C)cc1)NS(=O)(=O)c1c(C)cc(C)cc1C` (stereo unspecified), the 50% inhibitory concentration (IC50) is 1.1 µM in experiment [1], over 10 µM in experiment [2], 0.23 µM in experiment [3] and 3.4 µM in experiment [5]. The Emax in experiment [4] is 0%.
In the case of `CCC(Cc1cccc(C)c1)NS(=O)(=O)c1c(C)cc(C)cc1C` (stereo unspecified), the IC50 in experiment [1] was 0.4 µM; in experiment [2] it was over 10 µM; in experiment [3] it was 0.023 µM; in experiment [5], 5.5 µM. Moreover, the Emax in experiment [4] came out at 0%.
On to `CCC(Cc1ccc2ccccc2c1)NS(=O)(=O)c1c(C)cc(C)cc1C` (stereo unspecified), for which the IC50 in experiment [1] was 0.4 µM; in experiment [2] it was over 10 µM; in experiment [3], 0.078 µM; in experiment [5], 0.72 µM. Also, the Emax in experiment [4] was 0%.
The like results for `CC[C@@H](Cc1ccc(O)c(C)c1C)NS(=O)(=O)c1c(C)cc(C)cc1C` were, in that order, 0.27 µM, 0.022 µM, 0.002 µM, 0.62 µM and 77%.
Regarding `CCC(Cc1ccc(OC)c(C)c1C)NS(=O)(=O)c1c(C)cc(C)cc1C` (stereo unspecified), the IC50 in experiment [1] is 0.33 µM; in experiment [2], over 2 µM; in experiment [3], 0.062 µM; in experiment [5] it was 2.1 µM. Also, in experiment [4], the Emax turned out to be 0%.
